Assay results from patent US20240376056A1, “PHENYL ACETAMIDE BASED IL-17A MODULATORS AND USES THEREOF” (DiCE Alpha, Inc., priority 2021, published 2024).

Molecular target: T1, IL-17A/A (Homo sapiens, UniProt Q16552)
T1 construct: purchased Genscript Z03228
T1 sequence (Q16552 24-155): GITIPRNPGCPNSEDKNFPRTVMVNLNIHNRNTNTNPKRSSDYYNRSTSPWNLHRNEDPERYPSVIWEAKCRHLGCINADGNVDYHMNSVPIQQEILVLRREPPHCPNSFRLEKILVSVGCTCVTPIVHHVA
Experiment: HEK-Blue IL-17A/A inhibition assay (SEAP reporter)
Format: cell-based
Settings: HEK-Blue cells (HEK 293 expressing IL-17RA, IL-17RC, Act1); IL-17A/A stimulation; 20 hours; SEAP read at A630; 4-parameter fit
Summary of the method: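 IC50 from a 4-parameter fit of SEAP signal (Quanti-Blue, A630) after 20 h co-incubation of compound and IL-17A/A. Reporter line: HEK 293 expressing IL-17RA, IL-17RC and Act1 with NFκB-SEAP; compound top final 10, 1 or 0.3 uM, DMSO 0.1% final.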

| SMILES | IC50 [nM] |
| --- | --- |
| CC(C)n1nccc1C(=O)N[C@H](C(=O)Nc1ccc([C@H](C)C(=O)N2CC(F)(CO)C2)cc1F)C(C1CC1)C1CC1 [Compound 33, N-((S)-1,1-dicyclopropyl-3-((2-fluoro-4-((S)-1-(3-fluoro-3-(hydroxymethyl)azetidin-1-yl)-1-oxopropan-2-yl)phenyl)amino)-3-oxopropan-2-yl)-1-isopropyl-1H-pyrazole-5-carboxamide] | > 1000 |
| CC(C)n1nccc1C(=O)N[C@H](C(=O)Nc1ccc([C@H](C)C(=O)NCCF)cc1F)C(C1CC1)C1CC1 [Compound 34, N-((S)-1,1-dicyclopropyl-3-((2-fluoro-4-((S)-1-((2-fluoroethyl)amino)-1-oxopropan-2-yl)phenyl)amino)-3-oxopropan-2-yl)-1-isopropyl-1H-pyrazole-5-carboxamide] | 100 to 1000 |
| CC(C)n1nccc1C(=O)N[C@H](C(=O)Nc1ccc([C@H](C)C(=O)NCC(F)(F)CNC(=O)OC(C)(C)C)cc1F)C(C1CC1)C1CC1 [Compound 35, tert-butyl (3-((S)-2-(4-((S)-3,3-dicyclopropyl-2-(1-isopropyl-1H-pyrazole-5-carboxamido)propanamido)-3-fluorophenyl)propanamido)-2,2-difluoropropyl)carbamate] | > 1000 |
| CC(C)n1nccc1C(=O)N[C@H](C(=O)Nc1ccc([C@H](C)C(=O)NCc2ccccc2C(F)(F)F)cc1F)C(C1CC1)C1CC1 [Compound 36, N-((S)-1.1-dicyclopropyl-3-((2-fluoro-4-((S)-1-oxo-1-((2-(trifluoromethyl)benzyl)amino)propan-2-yl)phenyl)amino)-3-oxopropan-2-yl)-1-isopropyl-1H-pyrazole-5-carboxamide] | > 1000 |
| CC(C)n1nccc1C(=O)N[C@H](C(=O)Nc1ccc([C@H](C)C(=O)N2CC3(C2)CC(F)(F)C3)cc1F)C(C1CC1)C1CC1 [Compound 37] | > 1000 |
| CC(C)n1nccc1C(=O)N[C@H](C(=O)Nc1ccc([C@H](C)C(=O)N2C[C@H](F)[C@@H](F)C2)cc1F)C(C1CC1)C1CC1 [Compound 38, N-((S)-1,1-dicyclopropyl-3-((4-((S)-1-((3S,4S)-3,4-difluoropyrrolidin-1-yl)-1-oxopropan-2-yl)-2-fluorophenyl)amino)-3-oxopropan-2-yl)-1-isopropyl-1H-pyrazole-5-carboxamide] | 100 to 1000 |
| CC(C)n1nccc1C(=O)N[C@H](C(=O)Nc1ccc([C@H](C)C(=O)N2CCN(C(=O)OC(C)(C)C)CC2C(F)(F)F)cc1F)C(C1CC1)C1CC1 (stereo partly drawn) [Compound 39, tert-butyl 4-((S)-2-(4-((S)-3,3-dicyclopropyl-2-(1-isopropyl-1H-pyrazole-5-carboxamido)propanamido)-3-fluorophenyl)propanoyl)-3-(trifluoromethyl)piperazine-1-carboxylate] | > 1000 |
| CC(C)n1nccc1C(=O)N[C@H](C(=O)Nc1ccc([C@H](C)C(=O)N2C[C@@H](F)[C@@H](F)C2)cc1F)C(C1CC1)C1CC1 [Compound 40, N-((S)-1,1-dicyclopropyl-3-((4-((S)-1-((3S,4R)-3,4-difluoropyrrolidin-1-yl)-1-oxopropan-2-yl)-2-fluorophenyl)amino)-3-oxopropan-2-yl)-1-isopropyl-1H-pyrazole-5-carboxamide] | 100 to 1000 |
| CC(C)n1nccc1C(=O)N[C@H](C(=O)Nc1ccc([C@H](C)C(=O)NC(c2ccccn2)C(F)(F)F)cc1F)C(C1CC1)C1CC1 (stereo partly drawn) [Compound 41, N-((2S)-1,1-dicyclopropyl-3-((2-fluoro-4-((2S)-1-oxo-1-((2,2,2-trifluoro-1-(pyridin-2-yl)ethyl)amino)propan-2-yl)phenyl)amino)-3-oxopropan-2-yl)-1-isopropyl-1 H-pyrazole-5-carboxamide] | 100 to 1000 |
| CC(C)n1nccc1C(=O)N[C@H](C(=O)Nc1ccc([C@H](C)C(=O)N(CC(F)(F)F)CC(F)(F)F)cc1F)C(C1CC1)C1CC1 [Compound 42, N-((S)-1-((4-((S)-1-(bis(2,2,2-trifluoroethyl)amino)-1-oxopropan-2-yl)-2-fluorophenyl)amino)-3,3-dicyclopropyl-1-oxopropan-2-yl)-1-isopropyl-1H-pyrazole-5-carboxamide] | 100 to 1000 |
| CC(C)n1nccc1C(=O)N[C@H](C(=O)Nc1ccc([C@H](C)C(=O)NC2(C(F)(F)F)COC2)cc1F)C(C1CC1)C1CC1 [Compound 43, N-((S)-1.1-dicyclopropyl-3-((2-fluoro-4-((S)-1-oxo-1-((3-(trifluoromethyl)oxetan-3-yl)amino)propan-2-yl)phenyl)amino)-3-oxopropan-2-yl)-1-isopropyl-1H-pyrazole-5-carboxamide] | > 1000 |
| CC(C)n1nccc1C(=O)N[C@H](C(=O)Nc1ccc([C@H](C)C(=O)NCC(F)(F)C(F)(F)F)cc1F)C(C1CC1)C1CC1 [Compound 44, N-((S)-1,1-dicyclopropyl-3-((2-fluoro-4-((S)-1-oxo-1-((2,2,3,3,3-pentafluoropropyl)amino)propan-2-yl)phenyl)amino)-3-oxopropan-2-yl)-1-isopropyl-1H-pyrazole-5-carboxamide] | 100 to 1000 |
| CC(C)n1nccc1C(=O)N[C@H](C(=O)Nc1ccc([C@H](C)C(=O)N2CCOCCC2C(F)(F)F)cc1F)C(C1CC1)C1CC1 (stereo partly drawn) [Compound 45, N-((2S)-1,1-dicyclopropyl-3-((2-fluoro-4-((2S)-1-oxo-1-(5-(trifluoromethyl)-1,4-oxazepan-4-yl)propan-2-yl)phenyl)amino)-3-oxopropan-2-yl)-1-isopropyl-1H-pyrazole-5-carboxamide] | 100 to 1000 |
| CC(C)n1nccc1C(=O)N[C@H](C(=O)Nc1ccc([C@H](C)C(=O)NC2(C(F)(F)F)CN(C(=O)OC(C)(C)C)C2)cc1F)C(C1CC1)C1CC1 [Compound 46, tert-butyl 3-((S)-2-(4-((S)-3,3-dicyclopropyl-2-(1-isopropyl-1H-pyrazole-5-carboxamido)propanamido)-3-fluorophenyl)propanamido)-3-(trifluoromethyl)azetidine-1-carboxylate] | > 1000 |
| CC(C)n1nccc1C(=O)N[C@H](C(=O)Nc1ccc([C@H](C)C(=O)N2CC(F)CC2C(F)(F)F)cc1F)C(C1CC1)C1CC1 (stereo partly drawn) [Compound 47, N-((2S)-1,1-dicyclopropyl-3-((2-fluoro-4-((2S)-1-(4-fluoro-2-(trifluoromethyl)pyrrolidin-1-yl)-1-oxopropan-2-yl)phenyl)amino)-3-oxopropan-2-yl)-1-isopropyl-1H-pyrazole-5-carboxamide] | < 100 |
| CC(C)n1nccc1C(=O)N[C@H](C(=O)Nc1ccc([C@H](C)C(=O)NCC(F)(F)F)cc1F)C1CCC(F)(F)CC1 [Compound 50, N-((S)-1-(4,4-difluorocyclohexyl)-2-((2-fluoro-4-((S)-1-oxo-1-((2,2,2-trifluoroethyl)amino)propan-2-yl)phenyl)amino)-2-oxoethyl)-1-isopropyl-1H-pyrazole-5-carboxamide] | 100 to 1000 |
| CC(C)n1nccc1C(=O)N[C@H](C(=O)Nc1ccc([C@H](C)C(=O)N(C)CC(F)(F)F)cc1F)C1CCC(F)(F)CC1 [Compound 51, N-((S)-1-(4,4-difluorocyclohexyl)-2-((2-fluoro-4-((S)-1-(methyl(2,2,2-trifluoroethyl)amino)-1-oxopropan-2-yl)phenyl)amino)-2-oxoethyl)-1-isopropyl-1H-pyrazole-5-carboxamide] | 100 to 1000 |
